Columns and labels:
[1] = system: VPA-exposed rats; experiment: locomotor activity and repetitive behaviours, prenatal VPA model; type: in vivo, rat
Procedure: Pregnant Sprague-Dawley rats (Charles River, Calco, Italy), received a single intraperitoneal injection of 500 mg/kg sodium valproate on the 12.5 day after conception, and control females were injected with physiological saline at the same time. Sodium valproate (Sigma Aldrich, Milan, IT) was dissolved in saline at a concentration of 250 mg/ml.
CBDV was dissolved in ethanol, cremophor and saline (1:1:18). Symptomatic treatment with CBDV at doses of 0.2, 2, 20, and 100 mg/kg/day i.p. was performed starting from PND 34 (early adolescence) till 56 (early adulthood), both in male and female offspring of dams injected with VPA 500 mg/kg (or vehicle) on day 12.5 after conception. At PND 56, a series of behavioural tests was performed in order to assess the effect of chronic CBDV on sociability, social novelty, short-term memory, locomotion and stereotyped/repetitive behaviours.
Locomotor activity and repetitive behaviours: Locomotor activity was recorded in an activity cage for 20 minutes with the aid of Anymaze program (Ugo Basile, Italy). In this period, repetitive behaviours (self-grooming and digging) were measured by an observer blind to the treatment group.

[2] = system: Ube3am-/p+ (AS) mice; experiment: novel object recognition in Angelman syndrome mice; type: in vivo, mouse; details: 20 mg/kg i.p., age 7-8 weeks, vs AS vehicle
Procedure: Heterozygous mice with maternal deficiency of Ube3A (Ube3am−/p+) and wild type (Ube3am+/p+) were purchased from The Jackson Laboratory (Jackson code: B6.12957-Ube3a tm1Alb/J) and maintained in a C57BL/6 background.
Drugs were dissolved in 1:1:18 ethanol:cremophor:0.9% saline, for intraperitoneal (i.p.) administration. Drug treatment was performed daily for 35 days. CBDV was administered at 20 mg/kg.
Novel Object Recognition: The novel object recognition assesses recognition memory in mice. The experiment started with the habituation period, during which mice were allowed to freely explore for 1 hour the apparatus which consists of a rectangular open box (40×30×30 cm width×length×height) made of grey polyvinyl chloride (PVC) illuminated by a dim light. The day after each mouse was allowed to explore two identical objects positioned in the back left and right corners for 5 min (acquisition). A video camera recorded the time spent on exploration of each object. […] The behaviour of mice was analyzed by an observer blind to the treatment. Data are expressed as percentage of recognition index (RI %), which was calculated as the percentage of the time spent exploring the novel object/time spent exploring the novel object+time spent exploring the familiar object×100.

[3] = system: PCP-treated rats; experiment: novel object recognition test in sub-chronic PCP treated rats; type: in vivo, rat
Procedure: (§1) Female hooded-Lister rats were used for this experiment. Rats were housed in groups of 5 under standard laboratory conditions under a 12 hr light: dark cycle, lights on at 0700 hr. Testing was carried out in the light phase.
(§2) Rats were randomly assigned to two treatment groups and treated with vehicle, n=20 (distilled water, i.p.) or Phencyclidine hydrochloride (PCP), n=100 (2 mg/kg, i.p. twice daily for 7-days). PCP was dissolved in distilled water. This was followed by a 7-day wash out period before the rats were tested following acute treatment with CBDV, risperidone or vehicle.
(§3) Risperidone (0.1 mg/kg) was dissolved in a minimum volume of acetic acid, made up to volume with distilled water and pH adjusted to 6 with 0.1M NaOH and administered via the i.p. route in a volume of 1 ml/kg, 60 min prior to testing.
(§4) CBDV at 2, 10 or 20 mg/kg was dissolved in 2:1:17 (Ethanol:Cremofor:Saline 0.9%) and administered via the i.p. route in a volume of 5 ml/kg, 60 min prior to testing.
Rats were allowed to habituate to the empty test box and the behavioural test room environment for 1 h on day 1. Prior to behavioural testing on day 2 rats are given a further 3 min habituation.
Following the 3 min habituation period, the rats are given two 3 min trials (T1 and T2) which are separated by a 1 min inter-trial interval in the home cage during which the objects are changed. Behaviour in all trials was recorded on video for subsequent blind scoring.
In this trial, the animals are allowed to explore two identical objects (A1 and A2) for 3 min.
In this trial, the animals explore a familiar object (A) from T1 and a novel object (B) for 3 min. The familiar object presented during T2 is a duplicate of the object presented in T1 in order to avoid any olfactory trails.
The object exploration is defined by animals licking, sniffing or touching the object with the forepaws whilst sniffing, but not leaning against, turning around, standing or sitting on the object. The exploration time (s) of each object (A, B, familiar and novel) in each trial are recorded using two stopwatches and the following factors are calculated: • Total exploration time of both objects in the acquisition trial (s). • Total exploration time of both objects in the retention trial (s). • Habituation of exploratory activity includes the exploration time, as measured by the number of lines crossed, for both the trials. • Discrimination index (DI), which is calculated as shown below: […]

[4] = system: PCP-treated rats; experiment: social interaction test in sub-chronic PCP treated rats; type: in vivo, rat
Procedure: as §1, §2, §3, §4
The social interaction test is performed in an open-field comprising a square box made of Plexiglas (52×52×31 cm) placed 27 cm above the floor on a moveable trolley. The floor of the box is white with black gridlines forming 9 identical squares on it. All other walls are black. A video camera connected to a video recorder and monitor is positioned above the box. The object used for the test consists of a heavy structure made of metal that cannot be displaced by the animals.
The rats were habituated to the test environment and arena prior to the test day. Habituation consists of placing all rats from one cage together in the empty test arena for one hour for three days including the day before the test day.
Pairs of rats, weight matched (15-20 g) and unfamiliar to each other, receiving either no treatment (n=70 “conspecific” rats) or different treatments (PCP and Vehicle; n=10 “tested” rats or PCP+Drug; n=50 “tested” rats) were placed in the test arena together for 10 min and behaviour assessed as described below.
An inanimate object such as an unopened drinks can is also placed in the centre of the arena to measure any differences in interaction of the test animal with an unfamiliar animal as opposed to an unfamiliar object. After each 10 minute trial, the object and arena are cleaned with 10% alcohol in an attempt to remove traces of any olfactory cues. All testing is carried out under standard room illumination levels (70 cd/m2).
Behaviour in both trials was recorded on video for subsequent blind scoring. A behavioural scoring software program (Hindsight, Scientific programming services) is used to score the following parameters: • Investigative sniffing behaviour: sniffing the conspecific's snout or parts of the body including the anogenital region; • Following: rat moves after the conspecific i.e. a vehicle treated rat of the same species, around the arena; • Avoidances: actively turning away when approached by the conspecific animal; • Investigation of object: exploration of object placed in centre of the arena; and • Locomotor activity is recorded by counting the total number of sectors (i.e. lines) crossed by the test rat.

## C=C(C)[C@@H]1CCC(C)=C[C@H]1c1c(O)cc(CCC)cc1O [CBDV, Cannabidivarin]
[1]; females, 2 and 100 mg/kg
  time spent in compulsive self-grooming: significantly normalize
[1]; males, 20 mg/kg
  time spent in compulsive self-grooming: significantly normalize
[1]; males, 2, 20 and 100 mg/kg
  locomotion increased by VPA: normalize
[2]
  discrimination index: significantly increased
[3]; PCP rats, 10 and 20 mg/kg
  discrimination index (DI): statistically significant increase
[3]; PCP rats, CBDV 2, 10 or 20 mg/kg i.p., risperidone 0.1 mg/kg i.p., 60 min prior to testing
  preference between two identical objects, Trial 1 (acquisition): no real preference
[3]; PCP treated rats, CBDV 10 and 20 mg/kg i.p.
  cognitive dysfunction (discrimination between familiar and novel objects, Trial 2): reverse
[4]
  PCP effects on social interaction (sniffing, following, avoiding): reverse these effects in a statistically significant manner
[4]; CBDV 20 mg/kg
  time spent avoiding the other rat: reduce
  time spent following the other rat: increased
[4]; CBDV 10 and 20 mg/kg
  time spent sniffing the other rat: significantly increased
